Patent US12486265B2, “2-aminopyrimidine compounds and pharmaceutical compositions and uses thereof” (Shanghai Zhimeng Biopharma, Inc., priority 2019, dated 2025)
Read-outs that look alike come from different tables or passages of the source.

Assays:
human TLR7 = biological target: T1, human TLR7 (Homo sapiens, UniProt Q9NYK1); test: hTLR7 receptor binding activity in vitro (HEK-Blue hTLR7 SEAP reporter); type: cell-based; details: HEK-Blue hTLR7 cells, 24 hours, SEAP OD650
T1 construct: host or cells: HEK-Blue hTLR7 (HEK293-derived)
T1 sequence (Q9NYK1 27-1049): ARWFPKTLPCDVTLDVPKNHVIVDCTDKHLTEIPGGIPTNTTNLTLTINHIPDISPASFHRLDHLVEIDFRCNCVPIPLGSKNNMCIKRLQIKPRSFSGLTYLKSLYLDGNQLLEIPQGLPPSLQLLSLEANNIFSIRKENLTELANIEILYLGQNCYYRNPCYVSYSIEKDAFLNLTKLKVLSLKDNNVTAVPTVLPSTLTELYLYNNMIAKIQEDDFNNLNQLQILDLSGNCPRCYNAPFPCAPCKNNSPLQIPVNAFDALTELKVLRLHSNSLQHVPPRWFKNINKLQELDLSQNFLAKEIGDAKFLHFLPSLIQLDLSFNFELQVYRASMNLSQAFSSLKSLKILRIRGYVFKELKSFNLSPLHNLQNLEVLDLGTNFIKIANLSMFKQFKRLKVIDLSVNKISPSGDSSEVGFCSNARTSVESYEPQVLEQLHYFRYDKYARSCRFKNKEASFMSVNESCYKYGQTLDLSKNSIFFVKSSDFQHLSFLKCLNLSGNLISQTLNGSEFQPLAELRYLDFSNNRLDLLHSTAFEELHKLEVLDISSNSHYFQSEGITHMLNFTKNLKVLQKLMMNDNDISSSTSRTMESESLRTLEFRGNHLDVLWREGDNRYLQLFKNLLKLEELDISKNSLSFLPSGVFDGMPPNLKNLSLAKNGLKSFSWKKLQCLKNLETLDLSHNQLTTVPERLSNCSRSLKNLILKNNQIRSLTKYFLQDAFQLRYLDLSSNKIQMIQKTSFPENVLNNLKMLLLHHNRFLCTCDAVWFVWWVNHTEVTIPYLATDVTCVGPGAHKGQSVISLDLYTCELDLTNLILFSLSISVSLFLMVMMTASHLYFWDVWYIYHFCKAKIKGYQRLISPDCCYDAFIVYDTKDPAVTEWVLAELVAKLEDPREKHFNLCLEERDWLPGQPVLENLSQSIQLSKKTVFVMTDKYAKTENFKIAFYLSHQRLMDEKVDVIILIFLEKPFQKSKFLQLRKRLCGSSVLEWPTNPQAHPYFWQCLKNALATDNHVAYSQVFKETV
Experimental: (§1) The ability of the compounds of the present invention to activate TLR7 and TLR8 respectively was evaluated by using receptor binding experiments in vitro.
(§2) HEK-Blue™ hTLR7 (article number: hkb-htlr7) and HEK-Blue™ hTLR8 (article number: hkb-htlr8) cells were purchased from InvivoGen company. HEK-Blue™ hTLR7/8 cells can indicate the activation of TLR7/8 by detecting the activation level of NF-κB signaling pathway. HEK-Blue™ hTLR7/8 cells are derived from human embryonic kidney 293 cells, stably expressing human TLR7 or human TLR8, respectively, and can induce expression of secretory alkaline phosphatase (SEAP) to report gene system. The expression of SEAP reporter gene is regulated by IFN-β simplified promoter, which is composed of 5 NF-κB binding sequences and AP-1 binding sequences. Therefore, when TLR7/8 is activated in these two cells, NF-κB and AP-1 will be activated, and SEAP expression and extracellular secretion will be induced. By detecting the activity of SEAP outside the cell, the activation level of TLR7/8 can be indicated.
(§3) • (1) The compound was added to the cell culture plate after a 3-fold gradient dilution, with a total of 10 concentrations, with two duplicates wells for each concentration.
(§4) [drawing 45] per well; • (2) HEK-Blue™ hTLR7/8 cells were digested separately, counted, and the cells at 5.0×10^4 cells per well were added to a 96-well cell culture plate containing compounds; (3) The cells added with the compound were placed in a 5% CO2 incubator at 37° C. for 24 hours; • (4) Compound activity detection: took 20 µl/well cell culture supernatant and added it to 96-well plate containing 180 μl QUANTI-BLUE™ reagent. Incubated at 37° C. for one hour, and the optical density absorption value (OD650) at 650 nm was detected with a multifunctional microplate reader; • (5) Cell activity detection: operated according to the Celltiter-Glo instructions, and the chemiluminescence signal (RLU) was detected by a multifunctional microplate reader Envision; • (6) Data analysis: • Compound activity: OD650 value was analyzed by GraphPad Prism software, and the dose effect curve of the compound was fitted to calculate the EC50 value of the compound.

[1] = Cell activity detection (Celltiter-Glo) in HEK-Blue hTLR8 cells; type: cell-based; details: human
Experimental: as §4
(§5) Cell activity detection: cell activity was analyzed by GraphPad Prism software, and the dose effect curve of the compound was fitted to calculate the CC50 value of the compound to the cell.

IL-12p40 in human PBMC = test: IL-12p40 induction in human PBMC (ELISA); type: cell-based
From the text: The human peripheral blood mononuclear cell (PBMC) experiment and the IL-12p40 ELISA detection method are used to detect the IL-12p40 inducing activity of the compound of the present invention in human PBMC.
Toll-like receptors (TLRs) are a series of switches that regulate the human immune system and occupy an important position in both innate (non-specific) and specific immunity. TLR8 is mainly expressed in monocytes, macrophages and myeloid dendritic cells. TLR8 is expressed on the Endosome intima of the cell and recognizes single-stranded RNA with high GU (guanylate/uridonic acid) content. After TLR8 signaling pathway is activated, it will activate the secretion of a series of downstream cytokines (IL-12, TNF-alpha, IFN-gamma, etc.), causing antiviral immune response. In this experiment, the compound was used to stimulate human PBMC, and the level of IL-12p40 protein in the culture supernatant was detected to evaluate the activation level of the compound on the TLR8 signaling pathway.
• (1) The compound was added to the cell plate after a 3-fold gradient dilution, with a total of 8 concentrations, and two duplicate wells for each concentration.
(§6) Resuspended, cell number was counted, and the cell suspension was adjusted to 2.5×10^6 cells/ml with the culture medium.

[2] = Cell activity detection (Celltiter-Glo) in human PBMC; type: cell-based
Experimental: as §6, §5

[3] = Pharmacokinetic study in male SD rats; type: in vivo; details: rat, plasma
Experimental: Pharmacokinetic study: 6 healthy male SD rats (SPF grade) were divided into 2 groups and 3 rats/group. […] Within half an hour, plasma was taken after centrifugation (6000 rpm, 8 minutes, 4° C.) and frozen at −20° C. for later use. Experimental results: According to the obtained blood drug concentration data, the non-compartmental model of WinNonlin® 8.1 software (Certara, USA) was used to calculate the pharmacokinetic parameters after administration.

[4] = Liver-blood ratio study in male SD rats; type: in vivo; details: rat, liver / plasma, single oral administration; for Kp at 1 h: time point 1 h; for Kp at 4 h: time point 4 h
Experimental: Liver-blood ratio study: 4 healthy male SD rats (SPF grade) were divided into 2 groups and 2 rats/group. After fasting overnight, compound A and compound X were administrated orally respectively. Blood was taken through cardiac puncture at time points 1 and 4 hours, at least 0.5 mL of whole blood was collected to EDTA-K2 anticoagulant tube, and plasma was taken after centrifugation (6000 rpm, 8 minutes, 4° C.) within half an hour and frozen at −20° C. for later use. At the same time, liver tissue was collected, rinsed with normal saline, then blotted dry with absorbent paper, weighed, and frozen at −20° C. for later use.

human TLR8 = biological target: T2, human TLR8 (Homo sapiens, UniProt Q9NR97); test: hTLR8 receptor binding activity in vitro (HEK-Blue hTLR8 SEAP reporter); type: cell-based; details: for EC50: HEK-Blue hTLR8 cells, 24 hours, SEAP OD650; for selectivity for TLR8 activation: TLR8 versus TLR7, compared with compound X
T2 construct: host or cells: HEK-Blue hTLR8 (HEK293-derived)
T2 sequence (Q9NR97 27-1041): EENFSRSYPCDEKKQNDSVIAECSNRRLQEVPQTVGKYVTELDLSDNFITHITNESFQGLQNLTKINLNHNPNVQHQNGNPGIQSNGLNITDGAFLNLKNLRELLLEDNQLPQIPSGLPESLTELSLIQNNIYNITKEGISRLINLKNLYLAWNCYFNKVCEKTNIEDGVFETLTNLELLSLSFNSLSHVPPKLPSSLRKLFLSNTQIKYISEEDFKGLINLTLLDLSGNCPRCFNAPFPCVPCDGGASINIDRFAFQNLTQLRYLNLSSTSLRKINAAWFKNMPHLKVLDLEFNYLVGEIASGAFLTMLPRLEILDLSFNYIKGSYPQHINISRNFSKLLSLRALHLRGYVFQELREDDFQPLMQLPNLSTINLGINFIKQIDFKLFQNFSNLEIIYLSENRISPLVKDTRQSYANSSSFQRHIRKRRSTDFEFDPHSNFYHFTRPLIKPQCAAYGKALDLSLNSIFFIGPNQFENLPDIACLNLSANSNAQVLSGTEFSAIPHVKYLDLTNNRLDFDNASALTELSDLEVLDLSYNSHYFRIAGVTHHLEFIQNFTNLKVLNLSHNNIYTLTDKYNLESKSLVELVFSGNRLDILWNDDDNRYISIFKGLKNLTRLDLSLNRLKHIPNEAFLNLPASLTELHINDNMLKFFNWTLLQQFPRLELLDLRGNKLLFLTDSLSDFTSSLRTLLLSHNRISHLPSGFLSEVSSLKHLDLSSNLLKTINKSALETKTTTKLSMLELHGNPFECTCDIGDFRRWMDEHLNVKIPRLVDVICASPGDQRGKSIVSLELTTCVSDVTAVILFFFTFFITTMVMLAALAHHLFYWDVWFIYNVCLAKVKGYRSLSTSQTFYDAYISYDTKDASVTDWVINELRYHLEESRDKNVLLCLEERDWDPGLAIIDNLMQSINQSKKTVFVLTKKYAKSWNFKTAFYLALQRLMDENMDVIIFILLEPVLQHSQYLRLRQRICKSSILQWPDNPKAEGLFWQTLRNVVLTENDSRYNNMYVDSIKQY
Experimental: as §1, §2, §3, §4

[5] = 24 hours, Celltiter-Glo, read-out: CC50
[6] = read-out: cytotoxic CC50 on human PBMC
[7] = human PBMC, 24 hours, ELISA OD450, read-out: IL-12p40 EC50

Row | SMILES | EC50 (human TLR7) [µM] | CC50 at 24 h [1] [µM] | CC50 at 24 h [2, 5] [µM] | CC50 at 24 h [2, 6] [µM] | Kp at 1 h [4] | Kp at 4 h [4] | EC50 (human TLR8) [µM] | selectivity for TLR8 activation (human TLR8) | EC50 (IL-12p40 in human PBMC; [7]) [µM] | also measured
1 | CCCC[C@](C)(CNC(C)=O)Nc1nc(N)nc2cc(C(=O)N(C)C)cnc12 [Compound A] | > 33 | > 33 | > 33 | > 10 | 12.3 | 34.4 |  |  |  | EC50 (IL-12p40 in human PBMC; Homo sapiens, PBMC, 24 h, read-out: IL-12p40 EC50): 0.031 µM; EC50 (IL-12p40 in human PBMC; Homo sapiens, PBMC, read-out: induced activity EC50 on IL-12p40): 0.031 µM; AUC(0-inf) ([3]; IV 5 mg/kg): 877 ng·h/mL; AUC(0-t) ([3]; IV 5 mg/kg): 876 ng·h/mL; Cmax ([3]; IV 5 mg/kg): 1830 ng/mL; MRT last ([3]; IV 5 mg/kg): 22.8 min; Tmax ([3]; IV 5 mg/kg): 4.98 min; clearance ([3]; IV 5 mg/kg): 95 mL/min/kg; half-life ([3]; IV 5 mg/kg): 40.8 min; Vd ([3]; IV 5 mg/kg, read-out: Vz): 5.59 L/kg; AUC(0-inf) ([3]; PO 50 mg/kg): 1260 ng·h/mL; AUC(0-t) ([3]; PO 50 mg/kg): 1250 ng·h/mL; Cmax ([3]; PO 50 mg/kg): 1170 ng/mL; MRT last ([3]; PO 50 mg/kg): 116 min; Tmax ([3]; PO 50 mg/kg): 25.2 min; bioavailability ([3]; PO 50 mg/kg): 14.2%; half-life ([3]; PO 50 mg/kg): 345 min
2 | CCCC[C@](C)(CNC(C)=O)Nc1nc(N)nc2cc(C(=O)N3CC4(CCN(c5ccccc5)CC4)C3)cnc12 [Compound T] | > 33 | > 33 |  |  |  |  | 0.207 |  |  | 
3 | CCCC[C@](C)(CNC(C)=O)Nc1nc(N)nc2cc(NC3CC3)cnc12 [Compound B] | 28.4 | > 33 | 28.9 | > 10 |  |  | 0.029 | higher selectivity for TLR8 activation than compound X | 0.02 | EC50 (IL-12p40 in human PBMC; human PBMC, read-out: induced activity EC50 on IL-12p40): 0.02 µM
4 | CCCC[C@](C)(CNC(C)=O)Nc1nc(N)nc2cc(CC)cnc12 [Compound X, reference compound] | 11.9 | > 33 |  |  | 6.9 | 23.6 | 0.04 |  |  | 
5 | CCOCc1nc2c(N)nc3ccccc3c2n1CC(C)(C)O [Compound R848, reference compound] |  | > 71 | > 71 |  |  |  |  |  | 0.208 | 
6 | CCCC[C@](C)(CNC(C)=O)Nc1nc(N)nc2cc(C(C)=O)cnc12 [Compound V] | > 33 | > 33 |  |  |  |  | 0.049 | higher selectivity for TLR8 activation than compound X |  | 
